Results on 24 compounds are retold here after PMC12845239, “Development of Novel Proline- and Pipecolic Acid-Based Allosteric Inhibitors of Dengue and Zika Virus NS2B/NS3 Protease” (Pharmaceuticals, 2025).

One assay deals with T1, DENV NS2B/NS3 (Dengue virus type 2, UniProt P29990).
T1 construct: the hydrophilic 40-residue core domain of NS2B (NS2B(H)-NS3pro); The used DENV protease construct contains the protease domain of NS3
Put plainly: biochemical. The conditions noted are these: for inhibition at 50 µM: read-out: DENV % inhibition at 50 µM; for inhibition at 50 µM / DENV % inhibition at 50 µM: 50 µM inhibitor, DENV-2 protease 100 nM, substrate 50 µM.

A further assay concerns the target DENV-2 NS2B-NS3 protease (Dengue virus type 2, UniProt P29990). Put plainly: DENV2 Reporter Gene Assay (DENV2proHeLa). The format is cell-based. The conditions noted are these: for inhibition at 25 µM: M-HeLa, read-out: DENV2 proHeLa % inhibition at 25 µM; for EC50: read-out: DENV2 proHeLa EC50. Here is the method:
The DENV2proHeLa assay was performed as published previously. Stable cells were seeded into 96-well plates with a density of 2 × 10^4 cells per well and treated immediately with inhibitors of the DENV protease in a final volume of 100 μL. After incubation for 24 h at 37 °C, the medium was removed, and cells were lysed by adding 25 μL of lysis buffer (Promega) for 15 min at room temperature. Luciferase activity was recorded using a FLUOstar omega plate reader (BMG Labtech, Ortenberg, Germany) with injections of 100 μL per well of coelenterazine (2.75 μM in PBS). Luminescence was recorded for 5 s. Each concentration was assayed in triplicate. The percentage of inhibition was calculated in relation to the untreated control. For EC50 calculations, data were fitted and calculated with Prism 6.1 (GraphPad Software, Inc., San Diego, CA, USA) using a 4-parameter nonlinear dose-response curve with background subtraction (wells without cells).

A further assay concerns the target ZIKV NS2B/NS3 (Zika virus, UniProt A0A024B7W1, R1467A/R1531G). Put plainly: ZIKV protease relative inhibition assay (fluorometric, Bz-Nle-Lys-Arg-Arg-AMC 10 µM). The format is biochemical. The conditions noted are these: 50 µM inhibitor, ZIKV protease 10 nM, substrate 10 µM.
The subject of a further assay is serine protease of DENV. More on the design: method as in PMID 31769670. The conditions noted are these: cited from earlier work.
Another assay has as its system serine protease of ZIKV. The conditions noted are these: cited from earlier work.
The mark [1] stands for this setting: 25 µM, HeLa reporter cells, 24 h.

Read-outs that look alike come from different tables or passages of the source.

T1 sequence (P29990 1398-1437): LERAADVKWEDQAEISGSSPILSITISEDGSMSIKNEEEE
T1 sequence (P29990 1476-1653): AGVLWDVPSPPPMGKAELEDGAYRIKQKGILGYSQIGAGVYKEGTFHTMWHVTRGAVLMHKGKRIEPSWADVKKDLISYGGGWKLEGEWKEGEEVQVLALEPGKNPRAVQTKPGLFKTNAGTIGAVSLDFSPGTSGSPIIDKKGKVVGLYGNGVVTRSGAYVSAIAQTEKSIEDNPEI
Chain of DENV-2 NS2B-NS3 protease (P29990 1346-1653): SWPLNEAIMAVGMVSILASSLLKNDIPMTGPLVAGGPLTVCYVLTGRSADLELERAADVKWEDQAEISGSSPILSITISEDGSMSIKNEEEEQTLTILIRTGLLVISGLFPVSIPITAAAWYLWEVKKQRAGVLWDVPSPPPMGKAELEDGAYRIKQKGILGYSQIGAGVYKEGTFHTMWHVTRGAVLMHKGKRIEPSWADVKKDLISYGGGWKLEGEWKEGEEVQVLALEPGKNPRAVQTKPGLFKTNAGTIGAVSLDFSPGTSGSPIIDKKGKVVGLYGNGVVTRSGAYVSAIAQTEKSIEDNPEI

Turning to `O=C(Nc1nc2cc(O)c(O)cc2s1)[C@@H]1CCCN1S(=O)(=O)c1ccccc1C(F)(F)F` [Compound 2], the IC50 on DENV NS2B/NS3 is 5.1 ± 0.29 µM. On DENV-2 NS2B-NS3 protease (setting [1]), the inhibition at 25 µM came to 27.7%. At ZIKV NS2B/NS3, the “ZIKV % inhibition at 50 µM” value turned out to be 49.6%.

`O=C(Nc1nc2cc(O)c(O)cc2s1)[C@@H]1CCCN1S(=O)(=O)c1cccc(C(F)(F)F)c1` [Compound 3]: the 50% inhibitory concentration (IC50) at DENV NS2B/NS3 worked out at 5 ± 0.29 µM. In addition, the inhibition at 25 µM on DENV-2 NS2B-NS3 protease (setting [1]) stood at 46.6%. Moreover, the “ZIKV % inhibition at 50 µM” value on ZIKV NS2B/NS3 amounted to 36.6%.

For `O=C(Nc1nc2cc(O)c(O)cc2s1)[C@@H]1CCCN1S(=O)(=O)c1ccc(C(F)(F)F)cc1` [Compound 4], on DENV NS2B/NS3, the 50% inhibitory concentration (IC50) came out at 5.6 ± 0.39 µM. Besides, the inhibition at 25 µM at DENV-2 NS2B-NS3 protease (setting [1]) was determined as 19.5%. Besides, the “ZIKV % inhibition at 50 µM” value at ZIKV NS2B/NS3 came out at 35.4%.

In turn, `O=C(Nc1nc2cc(O)c(O)cc2s1)[C@@H]1CCCN1S(=O)(=O)c1ccccc1[N+](=O)[O-]` [Compound 5, (S)-N-(5,6-Dihydroxybenzo[d]thiazol-2-yl)-1-((2-nitrophenyl)sulfonyl)pyrrolidine-2-carboxamide] displayed a concentration for half-maximal inhibition (IC50) on DENV NS2B/NS3 of 8 ± 0.52 µM. Moreover, the inhibition at 25 µM on DENV-2 NS2B-NS3 protease (setting [1]) came out at 18.5%.

`O=C(Nc1nc2cc(O)c(O)cc2s1)[C@@H]1CCCN1S(=O)(=O)c1cccc([N+](=O)[O-])c1` [Compound 6, (S)-N-(5,6-Dihydroxybenzo[d]thiazol-2-yl)-1-((3-nitrophenyl)sulfonyl)pyrrolidine-2-carboxamide] displayed a concentration for half-maximal inhibition (IC50) on DENV NS2B/NS3 of 6.4 ± 0.52 µM. Moreover, the inhibition at 25 µM at DENV-2 NS2B-NS3 protease (setting [1]) worked out at 23.5%.

For the compound `O=C(Nc1nc2cc(O)c(O)cc2s1)[C@@H]1CCCN1S(=O)(=O)c1ccc([N+](=O)[O-])cc1` [Compound 7, (S)-N-(5,6-Dihydroxybenzo[d]thiazol-2-yl)-1-((4-nitrophenyl)sulfonyl)pyrrolidine-2-carboxamide, reference compound], the 50% inhibitory concentration (IC50) is 5 ± 0.37 µM on DENV NS2B/NS3, 8.58 µM in the assay on serine protease of DENV and 0.93 µM in the assay on serine protease of ZIKV. Also, the inhibition at 25 µM on DENV-2 NS2B-NS3 protease (setting [1]) was determined as 43%.

As for `O=C(Nc1nc2cc(O)c(O)cc2s1)[C@H]1CCCN1S(=O)(=O)c1ccccc1[N+](=O)[O-]` [Compound 14, (R)-N-(5,6-Dihydroxybenzo[d]thiazol-2-yl)-1-((2-nitrophenyl)sulfonyl)pyrrolidine-2-carboxamide], the inhibition at 50 µM on DENV NS2B/NS3 turned out to be 13.5%. Also, the inhibition at 25 µM on DENV-2 NS2B-NS3 protease came to 17.7%. For the same compound, on ZIKV NS2B/NS3, the “ZIKV % inhibition at 50 µM” value is given as 68.5%.

Turning to `O=C(Nc1nc2cc(O)c(O)cc2s1)[C@H]1CCCN1S(=O)(=O)c1cccc([N+](=O)[O-])c1` [Compound 15, (R)-N-(5,6-Dihydroxybenzo[d]thiazol-2-yl)-1-((3-nitrophenyl)sulfonyl)pyrrolidine-2-carboxamide], the inhibition at 50 µM at DENV NS2B/NS3 was 16.9%. Besides, the inhibition at 25 µM at DENV-2 NS2B-NS3 protease (setting [1]) amounted to 26.9%. Besides, on ZIKV NS2B/NS3, the “ZIKV % inhibition at 50 µM” value was determined as 54.6%.

With `O=C(Nc1nc2cc(O)c(O)cc2s1)[C@H]1CCCN1S(=O)(=O)c1ccc([N+](=O)[O-])cc1` [Compound 16, (R)-N-(5,6-Dihydroxybenzo[d]thiazol-2-yl)-1-((4-nitrophenyl)sulfonyl)pyrrolidine-2-carboxamide], the inhibition at 50 µM at DENV NS2B/NS3 stood at 40.7%. Besides, the inhibition at 25 µM at DENV-2 NS2B-NS3 protease (setting [1]) came out at 51.3%.

Consider `O=C(Nc1nc2cc(O)c(O)cc2s1)[C@@H]1CCCCN1S(=O)(=O)c1ccccc1C(F)(F)F` [Compound 17, (S)-N-(5,6-Dihydroxybenzo[d]thiazol-2-yl)-1-((2-(trifluoromethyl)phenyl)sulfonyl)piperidine-2-carboxamide], for which, at DENV NS2B/NS3, the inhibition at 50 µM is 58.7%. The inhibition at 25 µM on DENV-2 NS2B-NS3 protease (setting [1]) amounted to 41.7%. Besides, the “ZIKV % inhibition at 50 µM” value on ZIKV NS2B/NS3 is reported as 57.2%.

For `O=C(Nc1nc2cc(O)c(O)cc2s1)[C@@H]1CCCCN1S(=O)(=O)c1cccc(C(F)(F)F)c1` [Compound 18, (S)-N-(5,6-Dihydroxybenzo[d]thiazol-2-yl)-1-((3-(trifluoromethyl)phenyl)sulfonyl)piperidine-2-carboxamide], the inhibition at 50 µM on DENV NS2B/NS3 was 55.9%. Besides, at DENV-2 NS2B-NS3 protease (HeLa reporter cells, 24 h), the half-maximal effective concentration (EC50) is 12.8 ± 0.99 µM. The “ZIKV % inhibition at 50 µM” value at ZIKV NS2B/NS3 is reported as 42.2%.

On to `O=C(Nc1nc2cc(O)c(O)cc2s1)[C@@H]1CCCCN1S(=O)(=O)c1ccc(C(F)(F)F)cc1` [Compound 19], for which the inhibition at 50 µM on DENV NS2B/NS3 was determined as 51.3%. Also, the EC50 at DENV-2 NS2B-NS3 protease (HeLa reporter cells, 24 h) came to 20.3 ± 1.5 µM.

`O=C(Nc1nc2cc(O)c(O)cc2s1)[C@@H]1CCCCN1S(=O)(=O)c1ccccc1[N+](=O)[O-]` [Compound 20, (S)-N-(5,6-Dihydroxybenzo[d]thiazol-2-yl)-1-((2-nitrophenyl)sulfonyl)piperidine-2-carboxamide]: the inhibition at 50 µM at DENV NS2B/NS3 came to 29.6%. Moreover, the inhibition at 25 µM on DENV-2 NS2B-NS3 protease (setting [1]) was determined as 31.4%.

Regarding `O=C(Nc1nc2cc(O)c(O)cc2s1)[C@@H]1CCCCN1S(=O)(=O)c1cccc([N+](=O)[O-])c1` [Compound 21, (S)-N-(5,6-Dihydroxybenzo[d]thiazol-2-yl)-1-((3-nitrophenyl)sulfonyl)piperidine-2-carboxamide], at DENV NS2B/NS3, the “DENV % inhibition at 50 µM” value was “n.i”. Besides, the EC50 at DENV-2 NS2B-NS3 protease (HeLa reporter cells, 24 h) was 22 ± 1.5 µM.

Take `O=C(Nc1nc2cc(O)c(O)cc2s1)[C@@H]1CCCCN1S(=O)(=O)c1ccc([N+](=O)[O-])cc1` [Compound 22, (S)-N-(5,6-Dihydroxybenzo[d]thiazol-2-yl)-1-((4-nitrophenyl)sulfonyl)piperidine-2-carboxamide]: the inhibition at 50 µM on DENV NS2B/NS3 amounted to 59.8%. Besides, the EC50 on DENV-2 NS2B-NS3 protease (HeLa reporter cells, 24 h) came out at 13.4 ± 1.2 µM.

`O=C(Nc1nc2cc(O)c(O)cc2s1)[C@H]1CCCCN1S(=O)(=O)c1ccccc1C(F)(F)F` [Compound 23, (R)-N-(5,6-Dihydroxybenzo[d]thiazol-2-yl)-1-((2-(trifluoromethyl)phenyl)sulfonyl)piperidine-2-carboxamide] had an IC50 at DENV NS2B/NS3 of 41.8 ± 2.2 µM. For the same compound, the inhibition at 25 µM on DENV-2 NS2B-NS3 protease (setting [1]) worked out at 18.5%. For the same compound, the “ZIKV % inhibition at 50 µM” value at ZIKV NS2B/NS3 is recorded as 36.2%.

With `O=C(Nc1nc2cc(O)c(O)cc2s1)[C@H]1CCCCN1S(=O)(=O)c1cccc(C(F)(F)F)c1` [Compound 24, (R)-N-(5,6-Dihydroxybenzo[d]thiazol-2-yl)-1-((3-(trifluoromethyl)phenyl)sulfonyl)piperidine-2-carboxamide], inhibition against DENV NS2B/NS3 was half-maximal at 30.8 ± 1.7 µM (IC50). The EC50 at DENV-2 NS2B-NS3 protease (HeLa reporter cells, 24 h) turned out to be 5.2 ± 0.43 µM. Also, the “ZIKV % inhibition at 50 µM” value on ZIKV NS2B/NS3 worked out at 34.5%.

As to `O=C(Nc1nc2cc(O)c(O)cc2s1)[C@H]1CCCCN1S(=O)(=O)c1ccc(C(F)(F)F)cc1` [Compound 25], on DENV NS2B/NS3, the IC50 stood at 22.3 ± 1.4 µM. For the same compound, the inhibition at 25 µM at DENV-2 NS2B-NS3 protease (setting [1]) amounted to 38%. Besides, the “ZIKV % inhibition at 50 µM” value on ZIKV NS2B/NS3 is reported as 48.4%.

In the case of `O=C(Nc1nc2cc(O)c(O)cc2s1)[C@H]1CCCCN1S(=O)(=O)c1ccccc1[N+](=O)[O-]` [Compound 26, (R)-N-(5,6-Dihydroxybenzo[d]thiazol-2-yl)-1-((2-nitrophenyl)sulfonyl)piperidine-2-carboxamide], half-maximal inhibition against DENV NS2B/NS3 (IC50) was put at 38.9 ± 4 µM. In addition, at DENV-2 NS2B-NS3 protease (setting [1]), the inhibition at 25 µM worked out at 9.5%.

In the case of `O=C(Nc1nc2cc(O)c(O)cc2s1)[C@H]1CCCCN1S(=O)(=O)c1cccc([N+](=O)[O-])c1` [Compound 27, (R)-N-(5,6-Dihydroxybenzo[d]thiazol-2-yl)-1-((3-nitrophenyl)sulfonyl)piperidine-2-carboxamide], the half-maximal inhibitory concentration (IC50) on DENV NS2B/NS3 is 35 ± 2.1 µM. The concentration for a half-maximal effect (EC50) on DENV-2 NS2B-NS3 protease (HeLa reporter cells, 24 h) turned out to be 5.1 ± 0.53 µM.

Regarding `O=C(Nc1nc2cc(O)c(O)cc2s1)[C@H]1CCCCN1S(=O)(=O)c1ccc([N+](=O)[O-])cc1` [Compound 28, (R)-N-(5,6-Dihydroxybenzo[d]thiazol-2-yl)-1-((4-nitrophenyl)sulfonyl)piperidine-2-carboxamide], half-maximal inhibition against DENV NS2B/NS3 (IC50) required 27 ± 1.6 µM. Further, the EC50 at DENV-2 NS2B-NS3 protease (HeLa reporter cells, 24 h) was determined as 9 ± 0.4 µM.

As for “(S)-N-(5,6-Dihydroxybenzo[d]thiazol-2-yl)-1-(2-(trifluoromethyl)benzoyl)pyrrolidine-2-carboxamide [Compound 8]”, the “DENV % inhibition at 50 µM” value on DENV NS2B/NS3 is “n.i”. In addition, at DENV-2 NS2B-NS3 protease (setting [1]), the “DENV2 proHeLa % inhibition at 25 µM” value is “n.i”. At ZIKV NS2B/NS3, the “ZIKV % inhibition at 50 µM” value is listed as “n.i”.

Take “(S)-N-(5,6-Dihydroxybenzo[d]thiazol-2-yl)-1-(3-(trifluoromethyl)benzoyl)pyrrolidine-2-carboxamide [Compound 9]”: the “DENV % inhibition at 50 µM” value on DENV NS2B/NS3 amounted to 55.9%. Further, on DENV-2 NS2B-NS3 protease (setting [1]), the “DENV2 proHeLa % inhibition at 25 µM” value stood at 42.2%. Besides, the “ZIKV % inhibition at 50 µM” value at ZIKV NS2B/NS3 is recorded as 56.5%.

For “(S)-N-(5,6-Dihydroxybenzo[d]thiazol-2-yl)-1-(4(trifluoromethyl)benzoyl)pyrrolidine-2-carboxamide [Compound 10]”, the “DENV % inhibition at 50 µM” value at DENV NS2B/NS3 stood at 16.8%. The “DENV2 proHeLa % inhibition at 25 µM” value at DENV-2 NS2B-NS3 protease (setting [1]) came out at 15.4%. The “ZIKV % inhibition at 50 µM” value on ZIKV NS2B/NS3 is listed as 39.2%.
